Molecules are shown by their SMILES. Entries after “also recorded” stand apart in the source; their conditions may differ.

In data set [1] the target is T1, LTA4H (Homo sapiens, UniProt P09960).
T1 sequence (P09960 1-611): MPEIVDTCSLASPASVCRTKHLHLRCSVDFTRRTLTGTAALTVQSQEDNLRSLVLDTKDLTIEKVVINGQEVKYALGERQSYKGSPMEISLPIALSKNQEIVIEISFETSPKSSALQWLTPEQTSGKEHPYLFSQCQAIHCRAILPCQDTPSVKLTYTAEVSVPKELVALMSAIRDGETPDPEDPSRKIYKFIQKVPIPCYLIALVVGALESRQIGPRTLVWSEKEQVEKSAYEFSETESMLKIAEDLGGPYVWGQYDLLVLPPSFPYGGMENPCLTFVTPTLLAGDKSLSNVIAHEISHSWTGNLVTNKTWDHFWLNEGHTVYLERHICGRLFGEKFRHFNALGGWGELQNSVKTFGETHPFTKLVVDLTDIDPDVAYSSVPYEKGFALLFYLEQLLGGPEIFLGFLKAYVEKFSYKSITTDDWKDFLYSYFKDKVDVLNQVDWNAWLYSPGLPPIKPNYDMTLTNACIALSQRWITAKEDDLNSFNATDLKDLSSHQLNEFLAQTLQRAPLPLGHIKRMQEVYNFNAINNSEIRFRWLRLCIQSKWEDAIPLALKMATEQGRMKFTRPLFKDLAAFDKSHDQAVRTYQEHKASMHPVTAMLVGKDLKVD
The data set is described as follows: Thermal shift assay with differential scanning fluorimetry. It counts as binding. Also noted: made in house; host or cells: Escherichia coli JM101. The settings on record: for Tm of LTA4H upon the addition of inhibitor: 0 to 200 µM inhibitor, increased from 57.5 °C without inhibitor. As to the method:
DSF, also known as the thermal shift assay, was carried out in 25 mM Tris-HCl pH 7.8 containing 50 ng/µL LTA4H, 2X SYPRO Orange (Life Technologies, Carlsbad, CA, USA), 3% DMSO or 0–300 µM of an inhibitor. The assay was performed in a white 96-well Multiplate PCR Plate (Bio-Rad, Hercules, CA, USA) covered with the iCycler iQ Optical tape (Bio-Rad, Hercules, CA, USA). The total volume per well was 25 μL, consisting of 1 μL SYPRO Orange solution. Relative fluorescence intensities (RFU) were recorded with a C1000 Touch Thermal Cycler (Bio-Rad, Hercules, CA, USA) and a CFX-96 Real-Time System. […] The melting temperature (Tm) for each condition were obtained from the first derivative of melting curves and the affinity (Kd) and stability (Kb) values were calculated based on the Tm and concentration–response curves.
A general note: DSF heats the sample and reads unfolding from a dye or from intrinsic fluorescence.

The target of data set [2] is T1, LTA4H. Briefly: Isothermal titration calorimetry with LTA4H. Details: made in house; host or cells: Escherichia coli JM101. The settings on record: 25 mM Tris pH 7.8, 3% DMSO, 25 °C. It counts as binding. Here is the method:
ITC was performed with an iTC200 calorimeter (MicroCal Inc., Northampton, MA, USA) equipped with a […] sample cell. Measurements were performed in 25 mM Tris-HCl pH 7.8 supplemented with 3% DMSO at 25 °C. […] After the ITC system was equilibrated, the initial injection of an inhibitor was performed in 0.5–1.0 µL followed by 15 injections in 2.5 µL. The time between each injection was 1.5–3.0 min to ensure the complete equilibration of the system. Collected data were analyzed by MicroCal PEAK-ITC Analysis Software. Control experiments were performed with identical conditions using only inhibitor, protein or buffer with 3% DMSO.
On the technique in general: ITC needs no label: the signal is the heat of the interaction.

The target in data set [3] is T1, LTA4H. The data set is described as follows: Aminopeptidase assay of LTA4H with the PGP substrate. The class given is biochemical. Also noted: made in house; host or cells: Escherichia coli JM101. The settings on record: 800 μM PGP, 0–100 μM inhibitor. Here is the method: The reaction was stopped by addition of 150 μL of acetic acid. To detect and quantify released N-terminal proline, incubations with 150 μL of ninhydrin solution (25 mg/mL) were carried out at 100 °C for 45 min. Samples were cooled down and purple-colored ninhydrin conjugates were extracted with 350 μL toluene and the upper phase was transferred to a polypropylene 96-well plate (Greiner Bio-One, Kremsmünster, Austria). All incubations were carried out in triplicates and absorbance was measured at 495 nm using a TECAN Infinite M200 plate reader. Specific peptidase activities were determined based on the standard curve of free L-proline (Figure S10).

The target of data set [4] is T2, recombinant soluble epoxide hydrolase (sEH) (Homo sapiens, UniProt P34913).
T2 construct: made in house
T2 sequence (P34913 1-555): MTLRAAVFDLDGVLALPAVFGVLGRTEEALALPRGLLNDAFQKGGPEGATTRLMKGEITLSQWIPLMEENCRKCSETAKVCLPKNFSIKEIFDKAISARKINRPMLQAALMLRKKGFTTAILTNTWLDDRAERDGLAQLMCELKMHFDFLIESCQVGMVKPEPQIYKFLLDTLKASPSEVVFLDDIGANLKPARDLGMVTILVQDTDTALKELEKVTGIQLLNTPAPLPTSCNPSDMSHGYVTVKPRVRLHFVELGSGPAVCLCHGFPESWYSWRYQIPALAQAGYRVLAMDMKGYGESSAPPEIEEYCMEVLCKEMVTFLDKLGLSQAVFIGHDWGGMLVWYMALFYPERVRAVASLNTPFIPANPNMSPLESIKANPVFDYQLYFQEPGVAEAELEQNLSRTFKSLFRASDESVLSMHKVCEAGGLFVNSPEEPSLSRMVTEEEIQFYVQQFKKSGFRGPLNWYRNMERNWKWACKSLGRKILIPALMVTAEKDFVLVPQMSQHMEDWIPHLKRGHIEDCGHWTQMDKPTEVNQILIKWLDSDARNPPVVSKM
Briefly: Inhibition assay with soluble epoxide hydrolase (PHOME). The settings on record: for effect on the activity of recombinant soluble epoxide hydrolase (sEH): 50 μM PHOME. The class given is biochemical. Here is the method:
The human recombinant soluble epoxide hydrolase (sEH) was expressed and purified as described before.
Pre-incubation with 0.5 µg/mL of sEH and test compounds or 0.1% (v/v) vehicle was performed in 25 mM Tris-HCl buffer (pH 7.0) containing 0.1 mg/mL bovine serum albumin at room temperature for 10 min. Reaction was initiated with 50 μM PHOME, a non-fluorescent compound that is enzymatically converted into fluorescent 6-methoxy-naphtaldehyde, at room temperature for 60 min. Reactions were stopped with 200 mM ZnSO4 and fluorescence signals were recorded at 330 nm/465 nm (ex/em). If required, a possible fluorescence of test compounds was subtracted from the read-out.

For data set [5], the target named is T1, LTA4H. Also noted: made in house; host or cells: Escherichia coli JM101; method as in PMID 24591641. The settings on record: previously demonstrated; cited from earlier work.
[6] abbreviates: from Tm concentration–response curves, read-out: Kd by differential scanning fluorimetry.
Setting [7] is: mean ± SEM, n = 4, read-out: dissociation constant (Kd) by ITC.
[8] abbreviates: read-out: dissociation constant (Kd) by ITC.

Turning to `Nc1nc(-c2ccc(Cc3ccccc3)cc2)co1` [TTO, 4-(4-benzylphenyl) oxazol-2-amine], the “Tm of LTA4H upon the addition of inhibitor” value (“Tm … of inhibitor” below) on LTA4H [1] was 60.7 °C. The Kd (as a rule, the equilibrium constant for the complex coming apart) came out at 510 ± 40 nM at LTA4H [1] (setting [6]), 326 ± 29.4 nM on LTA4H [2] (setting [7]) and 330 nM at LTA4H [2] (setting [8]). In addition, at LTA4H [3], the “effect on the cleavage of the PGP tripeptide by recombinant LTA4H” value is recorded as “did not influence”. In addition, the “effect on the activity of soluble epoxide hydrolase (sEH) at 10 µM” value in data set [4] (10 µM inhibitor) was “attenuated”. Also, the “effect on the activity of recombinant soluble epoxide hydrolase (sEH)” value in data set [4] is given as “at higher concentrations may affect”.

On to `Nc1nc(-c2ccc(Cc3ccccc3)cc2)cs1` [ARM1, 4-(4-benzylphenyl) thiazol-2-amine, reference compound], for which the “Tm … of inhibitor” value at LTA4H [1] was 61.2 °C. In addition, the equilibrium dissociation constant (Kd) at LTA4H [1] (setting [6]) was 240 ± 10 nM; on LTA4H [2] (setting [7]), 248 ± 53.2 nM; at LTA4H [2] (setting [8]), 250 nM. Besides, on LTA4H [5], the “effect on PGP cleavage by LTA4H” value is recorded as “remains unaffected”. In addition, the “effect on the activity of recombinant soluble epoxide hydrolase (sEH)” value in data set [4] was “did not have any effect; also recorded: do not affect”.

With `Nc1nc(-c2ccc(Cc3ccccc3)cc2)c[se]1` [TTSe, 4-(4-benzylphenyl) selenazol-2-amine], the Kd was determined as 300 ± 20 nM at LTA4H [1]; 370 nM on LTA4H [2] (dissociation constant (Kd) by ITC); 367 ± 10.7 nM on LTA4H [2] (dissociation constant (Kd) by ITC, mean ± SEM, n = 4). Also, at LTA4H [1], the “Tm … of inhibitor” value was 61.9 °C. The “effect on the cleavage of the PGP tripeptide by recombinant LTA4H” value at LTA4H [3] is recorded as “did not influence”. In addition, the “effect on the activity of recombinant soluble epoxide hydrolase (sEH)” value in data set [4] was “did not have any effect; also recorded: do not affect”.

The values are drawn from publication PMC10145651, “Modulation of the 5-Lipoxygenase Pathway by Chalcogen-Containing Inhibitors of Leukotriene A4 Hydrolase” (International Journal of Molecular Sciences, 2023).
